Test results from ChEMBL document CHEMBL1148926, “Blanchaquinone: a new anthraquinone from an Australian Streptomyces sp” (2004).

Each molecule was assayed on Bacillus subtilis (assay: Antibacterial activity against Bacillus subtilis ATCC 6633 after 24 hrs by microtiter plate assay).
Assay type: functional

SMILES | LD99 [µg/mL]
COC(=O)[C@@H]1c2c(O)c3c(c(O)c2[C@@H](O)C[C@]1(O)CC(C)=O)C(=O)c1c(O)cccc1C3=O | 13
CC[C@@]1(O)C[C@H](O)c2c(O)c3c(c(O)c2[C@H]1C(=O)OC)C(=O)c1cccc(O)c1C3=O | 0.8
CCCCC(=O)c1c(CC(=O)OC)cc2c(c1O)C(=O)c1c(O)cccc1C2=O [BLANCHAQUINONE] | 6
CCc1ccc2c(O)c3c(c(O)c2c1)C(=O)c1cccc(O)c1C3=O | 13
COC(=O)Cc1cc2c(c(O)c1C(C)=O)C(=O)c1c(O)cccc1C2=O | 3
COC(=O)[C@@H]1c2c(O)c3c(c(O)c2[C@@H](O)C[C@@]1(C)O)C(=O)c1c(O)cccc1C3=O | 6
